Assay results as given in PubChem BioAssay AID488810 (Sanford-Burnham Center for Chemical Genomics, 2010).
“And” between values parts separate entries of the source, which are not always exact repeats. Equal entries are not always repeated. The source made the active and inactive calls.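 Rule for the calls: active = compounds with IC50 below 20 µM; inactive = the rest.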

Molecular target: Type-1 angiotensin II receptor (Homo sapiens) (UniProt P30556)
Test: AT1 receptor antagonists, beta-arrestin recruitment, SAR follow-up, selectivity assay for APJ antagonist project, cell-based, CHO-K1 PathHunter, luminescence (AID 488810);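 note: agonist challenge with angiotensin II at 50 nM final near its EC80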
Details: CHO-K1 AGTR1 PathHunter beta-arrestin, antagonist mode

Chain of Type-1 angiotensin II receptor (Homo sapiens) (P30556 whole entry, looked up): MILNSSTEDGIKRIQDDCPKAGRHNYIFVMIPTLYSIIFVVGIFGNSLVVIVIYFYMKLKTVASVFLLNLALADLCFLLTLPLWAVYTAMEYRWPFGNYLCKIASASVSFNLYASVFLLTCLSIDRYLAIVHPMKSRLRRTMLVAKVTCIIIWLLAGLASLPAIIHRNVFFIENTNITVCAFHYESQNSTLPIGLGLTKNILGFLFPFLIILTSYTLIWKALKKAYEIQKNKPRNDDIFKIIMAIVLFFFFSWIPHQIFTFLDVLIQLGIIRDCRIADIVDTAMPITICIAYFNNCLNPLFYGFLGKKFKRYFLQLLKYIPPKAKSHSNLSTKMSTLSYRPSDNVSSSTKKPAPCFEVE

How did the IC50 turn out when `Cc1ccnc(SCc2cc(=O)c(OC(=O)c3cccc([N+](=O)[O-])c3)co2)n1` was run?
The IC50 was > 79 µM (inactive).

With `C=CCOc1cccc(CSc2nc(C)cc(C)n2)c1` as the compound, how does the IC50 read?
Its IC50 is > 79 µM (inactive).

With `CC1(C)CC2(CC(c3ccc(F)cc3)c3ccc(O)cc3O2)NC(=S)N1` (stereo not given) as the compound, how does the IC50 read?
The IC50 was > 79 µM (inactive).

`O=C(Oc1coc(CSc2ncccn2)cc1=O)c1cc([N+](=O)[O-])ccc1Cl` was tested. Which IC50 did it give?
The IC50 was “inactive”.

For `Cc1cc(C)nc(SCc2cc(=O)c(OC(=O)c3ccc(C)c([N+](=O)[O-])c3)co2)n1`, which IC50 is on record?
The IC50 was > 79 µM (inactive).

How did the IC50 turn out when `Cc1cc(C)nc(SCc2cccc(O)c2)n1` was run?
The IC50 was > 79 µM (inactive).

Which IC50 does the source give for `COc1ccc(S(=O)(=O)NNc2nc(C)cc(C)n2)cc1[N+](=O)[O-]` here?
The IC50 was “inactive”.

With `Cc1ccnc(SCc2cc(=O)c(OC(=O)c3ccc(C(F)(F)F)cc3)co2)n1` as the compound, how does the IC50 read?
The IC50 was > 79 µM (inactive).

`Cc1ccnc(SCc2cc(=O)c(OC(=O)c3ccc([N+](=O)[O-])cc3)co2)n1` was tested. Which IC50 did it give?
The IC50 was > 79 µM (inactive).

How did the IC50 turn out when `O=C(Oc1coc(CSc2ccccc2)cc1=O)c1ccc(Cl)c([N+](=O)[O-])c1` was run?
The IC50 was > 79 µM (inactive).

With `O=C(Oc1coc(CSc2ncccn2)cc1=O)c1ccc(Cl)cc1` as the compound, how does the IC50 read?
The IC50 was > 79 µM (inactive).

For `FC(F)(F)c1cccc(Sc2nc(-c3ccccc3)nnc2C(F)(F)F)c1`, which IC50 is on record?
The IC50 was 17.9 µM.

Which IC50 does the source give for `C=CCOc1cccc(CSc2nccc(C)n2)c1` here?
The IC50 was > 79 µM (inactive).

Which IC50 does the source give for `CNC(=O)c1nnsc1S(=O)(=O)c1ccc(Cl)cc1` here?
The IC50 was 9.98 µM.

`O=C(CNc1ccc(Br)cc1)c1ccccc1` was tested. Which IC50 did it give?
The IC50 was 2.66 µM.

Which IC50 does the source give for `Cc1ccccc1C1CC2(CC(C)(C)NC(=S)N2)Oc2cc(O)c(Cl)cc21` (stereo not given) here?
The IC50 was > 79 µM (inactive).

How did the IC50 turn out when `CN(C)S(=O)(=O)c1ccc(C(=O)Oc2coc(CSc3ncccn3)cc2=O)cc1` was run?
The IC50 was > 79 µM (inactive).

Which IC50 does the source give for `Cc1cc(C)nc(SCc2cc(=O)c(OC(=O)c3ccc(S(=O)(=O)N(C)C)cc3)co2)n1` here?
The IC50 was > 79 µM (inactive).

How did the IC50 turn out when `O=C(Oc1coc(CSc2ncccn2)cc1=O)c1ccc(-c2ccccc2)cc1` was run?
The IC50 was > 79 µM (inactive).

How did the IC50 turn out when `C=CCOc1cccc(CSc2ncccn2)c1` was run?
The IC50 was > 79 µM (inactive).

Which IC50 does the source give for `O=C(Oc1coc(CSc2ncccn2)cc1=O)c1ccc(S(=O)(=O)N2CCCCC2)cc1` here?
Its IC50 is > 79 µM (inactive).

Which IC50 does the source give for `Cc1ccc(N=C2C(=O)Nc3c(C)cccc32)cc1` here?
The IC50 was “inactive”.

With `O=C(Oc1coc(CSc2ncccn2)cc1=O)c1ccc(Cl)c([N+](=O)[O-])c1` as the compound, how does the IC50 read?
The IC50 was > 79 µM (inactive).

With `CCCCOc1ccc(C(=O)Oc2coc(CSc3ncccn3)cc2=O)cc1` as the compound, how does the IC50 read?
The IC50 was > 79 µM (inactive).

How did the IC50 turn out when `Cc1ccc(C)c(NCC(O)c2ccc(Cl)cc2)c1` (stereo not given) was run?
Its IC50 is > 79 µM (inactive).

For `Cc1ccnc(SCc2cc(=O)c(OC(=O)c3cccs3)co2)n1`, which IC50 is on record?
The IC50 was > 79 µM (inactive).

`O=C(Oc1coc(CSc2ncccn2)cc1=O)c1cc(Cl)ccc1[N+](=O)[O-]` was tested. Which IC50 did it give?
Its IC50 is “inactive”.

How did the IC50 turn out when `Cc1ccnc(SCc2cc(=O)c(OC(=O)c3ccccc3)co2)n1` was run?
The IC50 was > 79 µM (inactive).

For `O=c1c2cc(Br)ccc2[nH]c(=S)n1Cc1ccccn1`, which IC50 is on record?
Its IC50 is 15.6 µM.

`Cc1cc(C)nc(SCc2ccc(O)c(Cl)c2)n1` was tested. Which IC50 did it give?
The IC50 was > 79 µM (inactive).

`Cc1cc(C)nc(SCc2cc(=O)c(OC(=O)c3cccc([N+](=O)[O-])c3C)co2)n1` was tested. Which IC50 did it give?
The IC50 was > 79 µM (inactive).

`Cc1cc(C)nc(NNS(=O)(=O)c2ccc(F)c(Cl)c2)n1` was tested. Which IC50 did it give?
The IC50 was 3.78 µM.

How did the IC50 turn out when `Cc1ccc(C)c(NCC(=O)c2ccc(Cl)cc2)c1` was run?
Its IC50 is 1.27 µM.

How did the IC50 turn out when `O=C(COC(=O)c1cnccn1)c1ccc(Cl)c([N+](=O)[O-])c1` was run?
Its IC50 is 9.73 µM.

`CC(C)N1CCc2c(sc(NC(=O)c3cc(-c4cccs4)nc4ccccc34)c2C(N)=O)C1` was tested. Which IC50 did it give?
Its IC50 is “inactive”.

Which IC50 does the source give for `COc1ccccc1NCC(=O)c1ccc(Cl)cc1` here?
Its IC50 is 1.93 µM and 2.19 µM.

How did the IC50 turn out when `C=CCSC1=NC2(CC(c3ccccc3)c3c(C)cc(O)cc3O2)CC(C)(C)N1` (stereo not given) was run?
Its IC50 is > 79 µM (inactive).

How did the IC50 turn out when `CCOC(=O)C1=NNC(C(=O)c2ccc(Cl)cc2)C1c1ccccc1` (stereo not given) was run?
The IC50 was “inactive”.

Which IC50 does the source give for `CC(C)Oc1ccc(C(=O)Oc2coc(CSc3ncccn3)cc2=O)cc1` here?
Its IC50 is > 79 µM (inactive).

Which IC50 does the source give for `N#Cc1ccc(C(=O)Oc2coc(CSc3ncccn3)cc2=O)cc1` here?
The IC50 was > 79 µM (inactive).

Which IC50 does the source give for `CCN(CC)S(=O)(=O)c1ccc(C(=O)Oc2coc(CSc3ncccn3)cc2=O)cc1` here?
The IC50 was > 79 µM (inactive).

How did the IC50 turn out when `Cc1ccc2nc(C)cc(C(=O)OCC(=O)c3ccc(Cl)c([N+](=O)[O-])c3)c2c1` was run?
The IC50 was 7.74 µM.

How did the IC50 turn out when `Cc1ccc(C(=O)CNc2cc(C)ccc2C)cc1` was run?
Its IC50 is 3.44 µM.

How did the IC50 turn out when `CC1(C)CC2(CC(c3ccccc3Cl)c3ccc(O)cc3O2)NC(=S)N1` (stereo not given) was run?
Its IC50 is “inactive”.

How did the IC50 turn out when `Cc1ccnc(SCc2cc(=O)c(OC(=O)c3ccc(F)cc3)co2)n1` was run?
Its IC50 is > 79 µM (inactive).
